Data published in article PMC11784839, “Monoaminergic neurotransmitters are bimodal effectors of tau aggregation” (Science Advances, 2025).

Target: tau (Homo sapiens, UniProt P10636)
Experiment: MCE Phenols Library screening, tau biosensor cell seeding assay (AvZ)
Format: cell-based
Settings: for Z repl 1 / Z Repl 2: Z score; for Z repl 1 / raw data 1: replicate 1; for Z Repl 2 / raw data 2: replicate 2; for AvZ (average z score of seeding, SDs from the mean level of seeding): 10 μM phenol in cell cultures, AD brain homogenate preincubated 16 hours, two biological replicates, positive = catalyzes seeding, negative = inhibits
[1] = average Z score of the two replicates, MCE Phenols Library screen
[2] = average puncta of the two replicates
[3] = average Z score of the two replicates, tau seeding
[4] = average Z score of two replicates, Phenols Library screen

tau, sequence (P10636 623-695 limits assumed): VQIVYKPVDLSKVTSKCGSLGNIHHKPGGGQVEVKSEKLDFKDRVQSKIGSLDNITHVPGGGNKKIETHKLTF

SMILES	Z repl 1	Z Repl 2	av Z [1]	av puncta [2]	raw data 1 (raw puncta)	raw data 2 (raw puncta)	av Z [3]	av puncta (average of raw data 1 and 2)	raw data 1 (puncta)	raw data 2 (puncta)	AvZ (average z score of seeding, SDs from the mean level of seeding)	av Z [4]	av Z (average Z score of the two replicates, tau biosensor seeding, MCE Phenols Library screen)
O=c1cc(-c2ccc(O)c(-c3c(O)cc(O)c4c(=O)cc(-c5ccc(O)cc5)oc34)c2)oc2cc(O)cc(O)c12 [Amentoflavone]	-0.87	-0.309	-0.589	12689.4	–	–	–	–	15910.5	9468.24	–	–	–
CCCCCCCCCCCCCCCc1cccc(O)c1C(=O)O [Anacardic Acid]	0.086	-0.324	–	–	–	–	–	18346.5	27383.8	9309.16	-0.119	–	–
O=c1cc(-c2ccc(O)cc2)oc2cc(O[C@@H]3O[C@H](CO)[C@@H](O)[C@H](O)[C@H]3O)cc(O)c12 [Apigenin 7-glucoside]	0.518	-0.371	–	–	–	–	–	20688.8	32570.5	8807.12	–	0.074	–
O=c1cc(-c2ccc(O)cc2)oc2cc(O[C@@H]3O[C@H](CO)[C@@H](O)[C@H](O)[C@H]3O[C@@H]3OC[C@](O)(CO)[C@H]3O)cc(O)c12 [Apiin]	1.204	0.234	–	–	–	–	0.719	28032.2	40800.8	15263.6	–	–	–
COc1cc(C(C)=O)ccc1O [Apocynin]	-1.155	-0.185	–	11639.1	–	–	–	–	12482.9	10795.4	-0.67	–	–
OC[C@H]1O[C@@H](Oc2ccc(O)cc2)[C@H](O)[C@@H](O)[C@@H]1O [Arbutin]	-0.665	0.333	–	–	–	–	–	17341.3	18360	16322.6	–	-0.166	–
O=c1c(O[C@@H]2O[C@H](CO)[C@@H](O)[C@H](O)[C@H]2O)c(-c2ccc(O)cc2)oc2cc(O)cc(O)c12 [Astragalin]	-0.525	-0.638	-0.581	12999	–	–	–	–	20041.3	5956.82	–	–	–
COC(=O)c1c(C)cc(OC(=O)c2c(C)cc(O)c(C=O)c2O)c(C)c1O [Atranorin]	-0.357	-0.801	-0.579	13136.9	–	–	–	–	22066.2	4207.53	–	–	–

Second part, the molecule after the results:

Z repl 1	Z Repl 2	av Z [1]	av puncta [2]	raw data 1 (raw puncta)	raw data 2 (raw puncta)	av Z [3]	av puncta (average of raw data 1 and 2)	raw data 1 (puncta)	raw data 2 (puncta)	AvZ (average z score of seeding, SDs from the mean level of seeding)	av Z [4]	av Z (average Z score of the two replicates, tau biosensor seeding, MCE Phenols Library screen)	SMILES
-0.336	-0.332	-0.334	15768.9	22314.5	9223.26	–	–	–	–	–	–	–	O=C1c2c(O)cccc2C([C@@H]2O[C@H](CO)[C@@H](O)[C@H](O)[C@H]2O)c2cc(CO)cc(O)c21 (stereo partly drawn) [Aloin(mixture of A&B)]
0.178	0.236	–	–	–	–	0.207	21886.9	28489.7	15284.2	–	–	–	O=C1c2c(O)cccc2C([C@@H]2O[C@H](CO)[C@@H](O)[C@H](O)[C@H]2O)c2cc(CO)cc(O)c21 (stereo partly drawn) [Aloin]
-0.702	0.126	-0.288	16013.9	17917.5	14110.3	–	–	–	–	–	–	–	CC(=O)c1cc2c(CO)cc(O)cc2oc1=O [Armillarisin A]
-0.961	-0.271	-0.616	12342.8	–	–	–	–	14810.1	9875.55	–	–	–	COc1c(O[C@@H]2O[C@H](CO)[C@@H](O)[C@H](O)[C@H]2O)cc2c(c1O)C(=O)c1c(cc(C)c(O)c1OC)C2=O [Aurantio-obtusin ?-D-glucoside]
1.115	1.158	–	–	–	–	–	32432	39734.3	25129.7	–	–	1.136	O=c1c(O[C@@H]2O[C@@H](CO)[C@H](O)[C@H]2O)c(-c2ccc(O)c(O)c2)oc2cc(O)cc(O)c12 [Avicularin]
